Experimental data: patent US20250215021A1, “SYSTEMS AND METHODS UTILIZING THERANOSTIC AGENTS FOR BPCT AND BNCT FOR TARGETED CANCER TREATMENT” (University of Virginia Patent Foundation, priority 2022, published 2025)

Tested on: MCF-10A epithelial cells
Assay: Cell uptake in MCF-10A (normal cell control)
Format: cell-based
Conditions: all concentrations tested
Description: Referring now to FIGS. 6A-6B, after confirming the structure and purity of the compound, further biological evaluation was performed. Preferential cancer cell uptake was evaluated in human breast cancer cells MCF-7 compared with MCF-10A epithelial cells. […] The cancer cell uptake was also confirmed by confocal microscopy. The concentration and constitutional stability of the compound in cancer cells was established by lysing the MCF-7 incubated with 5 μM of compound for 4 hrs. […] Inherent toxicity of the compound to both normal and cancer cells was evaluated using HMCD and 1-amino-1-carbadodecaborate as controls.

**Q.** With `CC1(C)C(/C=C/C2=C(Cl)C(=C/C=C3/N(CCCCCC(=O)O)c4ccccc4C3(C)C)/CCC2)=[N+](CCCCS(=O)(=O)[O-])c2ccccc21` [parent HMCD] as the molecule, how does the “uptake in MCF-10A cells” value read?
**A.** no or poor uptake
